Results taken from patent US20030153575A1, “Tetracyclic diketopiperazine compounds as pdev inhibitors” (priority 2002, published 2003).

Key:
human recombinant PDE5 = human recombinant PDE5 (Homo sapiens, UniProt O76074); assay: Inhibitory effect on cGMP-PDE (PDE5 IC50); format: biochemical; settings: in vitro, human recombinant PDE5, 0.15 μM 8-[H3]-cGMP, 30 min incubation
Method: The compounds of structural formula (I) were tested for an ability to inhibit PDE5. The ability of a compound to inhibit PDE5 activity is related to the IC50 value for the compound, i.e., the concentration of inhibitor required for 50% inhibition of enzyme activity. The IC50 value for compounds of structural formula (I) were determined using recombinant human PDE5.
cGMP-PDE activity of compounds of the present invention was measured using a one-step assay adapted from Wells et al., Biochim. Biophys. Acta, […], 430 (1975). The reaction medium contained 50 mM Tris-HCl, pH 7.5, 5 mM magnesium acetate, 250 μg/ml 5′-Nucleotidase, 1 mM EGTA, and 0.15 μM 8-[H^3]-cGMP. Unless otherwise indicated, the enzyme used was a human recombinant PDE5 (ICOS Corp., Bothell, Wash.).
Compounds of the invention were dissolved in DMSO finally present at 2% in the assay.

## CN1CC(=O)N2[C@H](c3ccc(O)c(O)c3)c3[nH]c4ccccc4c3C[C@@H]2C1=O [Example 1, (6R,12aR)-6-(3,4-Dihydroxyphenyl)-2-methyl-2,3,6,7,12,12a-hexahydropyrazino[1′,2′:1,6]-pyrido[3,4-b]indole-1,4-dione]
other
  melting point: 250.5 to 256.6 °C
Human recombinant PDE5
  IC50: 45 nM

## COc1cc([C@@H]2c3[nH]c4ccccc4c3C[C@@H]3C(=O)N(C)CC(=O)N23)ccc1O [Example 2, (6R,12aR)-6-(4-Hydroxy-3-methoxyphenyl)-2-methyl-2,3,6,7,12,12a-hexahydropyrazino[1′,2′:1,6]-pyrido[3,4-b]indole-1,4-dione]
other
  melting point: 288.2 to 292.2 °C
Human recombinant PDE5
  IC50: 230 nM
